Assay [1] deals with EGFR del19/T790M/C797S (Homo sapiens, UniProt P00533, C797S/DEL746-750/T790M). Briefly: Biochemical EGFR kinase assay (Lance Ultra TR-FRET), triple mutant del19/T790M/C797S. The method in brief:
(§1)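 Kinase activity is measured by TR-FRET phosphopeptide detection. Compounds span 0.003 μM to 10 μM; the 1 h reaction at room temperature is quenched with EDTA, then labelled antibody (2 nM) is incubated 60 min before reading.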
Background: In TR-FRET formats the signal depends on donor and acceptor labels being close together.

The target in assay [2] is EGFR del19/C797S (Homo sapiens, UniProt P00533, C797S/DEL746-750). Description: Biochemical EGFR kinase assay (Lance Ultra TR-FRET), double mutant del19/C797S. The method in brief:
as §1

Assay [3] deals with EGFR L858R/T790M/C797S (Homo sapiens, UniProt P00533, C797S/L858R/T790M). Description: Biochemical EGFR kinase assay (Lance Ultra TR-FRET), triple mutant L858R/T790M/C797S. Summed up: as §1
In assay [4] the target is EGFR L858R/C797S (Homo sapiens, UniProt P00533, C797S/L858R). Description: Biochemical EGFR kinase assay (Lance Ultra TR-FRET), double mutant L858R/C797S. The method in brief: as §1
For assay [5], the target named is EGFR wildtype (Homo sapiens, UniProt P00533). Briefly: Biochemical EGFR kinase assay (Lance Ultra TR-FRET), wildtype. Summed up:
as §1

[6] abbreviates: IC50 del19/T790M/C797S, 100 μM ATP.
[7] abbreviates: IC50 L858R/T790M/C797S, 100 μM ATP.
Setting [8] is: ATP at Km, read-out: IC50 del19/T790M/C797S, Km ATP.
Where [9] appears, read: ATP at Km, read-out: IC50 del19/C797S, Km ATP.
[10] abbreviates: ATP at Km, read-out: IC50 L858R/T790M/C797S, Km ATP.
Setting [11] is: ATP at Km, read-out: IC50 L858R/C797S, Km ATP.
Setting [12] is: ATP at Km, read-out: IC50 WT, Km ATP.

pIC50: −log10 of the molar value. Like-named read-outs stand apart in the source and are kept apart here.

Chain of EGFR L858R/C797S (P00533 25-1210 C797S/L858R): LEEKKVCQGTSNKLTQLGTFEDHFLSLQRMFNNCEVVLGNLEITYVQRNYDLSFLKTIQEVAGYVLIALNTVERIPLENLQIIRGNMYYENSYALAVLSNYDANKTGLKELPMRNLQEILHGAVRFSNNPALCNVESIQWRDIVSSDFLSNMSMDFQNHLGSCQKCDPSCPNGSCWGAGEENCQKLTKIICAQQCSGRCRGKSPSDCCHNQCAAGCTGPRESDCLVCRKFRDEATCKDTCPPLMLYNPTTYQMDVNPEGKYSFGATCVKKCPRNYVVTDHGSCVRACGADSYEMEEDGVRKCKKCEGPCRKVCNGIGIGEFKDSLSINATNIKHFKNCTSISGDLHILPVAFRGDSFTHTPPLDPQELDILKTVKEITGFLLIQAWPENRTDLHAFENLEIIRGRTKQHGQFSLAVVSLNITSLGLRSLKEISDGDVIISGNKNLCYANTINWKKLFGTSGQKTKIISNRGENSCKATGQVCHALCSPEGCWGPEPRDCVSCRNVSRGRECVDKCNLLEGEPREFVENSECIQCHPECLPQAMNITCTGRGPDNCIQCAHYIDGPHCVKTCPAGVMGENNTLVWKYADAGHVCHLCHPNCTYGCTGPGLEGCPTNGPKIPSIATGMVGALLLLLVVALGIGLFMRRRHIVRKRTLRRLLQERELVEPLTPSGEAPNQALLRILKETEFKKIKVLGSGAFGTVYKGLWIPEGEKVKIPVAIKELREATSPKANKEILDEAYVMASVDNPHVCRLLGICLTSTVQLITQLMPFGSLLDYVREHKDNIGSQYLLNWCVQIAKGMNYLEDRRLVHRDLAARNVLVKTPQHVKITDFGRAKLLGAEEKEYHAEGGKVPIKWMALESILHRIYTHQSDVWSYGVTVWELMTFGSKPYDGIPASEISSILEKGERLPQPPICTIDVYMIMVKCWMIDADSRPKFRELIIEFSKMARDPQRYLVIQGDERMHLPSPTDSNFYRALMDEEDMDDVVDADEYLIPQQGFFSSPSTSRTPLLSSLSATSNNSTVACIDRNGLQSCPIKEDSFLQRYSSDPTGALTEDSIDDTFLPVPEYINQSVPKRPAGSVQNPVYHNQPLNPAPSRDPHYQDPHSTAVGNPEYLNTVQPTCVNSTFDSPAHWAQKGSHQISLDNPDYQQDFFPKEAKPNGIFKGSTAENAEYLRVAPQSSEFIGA
Chain of EGFR L858R/T790M/C797S (P00533 25-1210 T790M/C797S/L858R): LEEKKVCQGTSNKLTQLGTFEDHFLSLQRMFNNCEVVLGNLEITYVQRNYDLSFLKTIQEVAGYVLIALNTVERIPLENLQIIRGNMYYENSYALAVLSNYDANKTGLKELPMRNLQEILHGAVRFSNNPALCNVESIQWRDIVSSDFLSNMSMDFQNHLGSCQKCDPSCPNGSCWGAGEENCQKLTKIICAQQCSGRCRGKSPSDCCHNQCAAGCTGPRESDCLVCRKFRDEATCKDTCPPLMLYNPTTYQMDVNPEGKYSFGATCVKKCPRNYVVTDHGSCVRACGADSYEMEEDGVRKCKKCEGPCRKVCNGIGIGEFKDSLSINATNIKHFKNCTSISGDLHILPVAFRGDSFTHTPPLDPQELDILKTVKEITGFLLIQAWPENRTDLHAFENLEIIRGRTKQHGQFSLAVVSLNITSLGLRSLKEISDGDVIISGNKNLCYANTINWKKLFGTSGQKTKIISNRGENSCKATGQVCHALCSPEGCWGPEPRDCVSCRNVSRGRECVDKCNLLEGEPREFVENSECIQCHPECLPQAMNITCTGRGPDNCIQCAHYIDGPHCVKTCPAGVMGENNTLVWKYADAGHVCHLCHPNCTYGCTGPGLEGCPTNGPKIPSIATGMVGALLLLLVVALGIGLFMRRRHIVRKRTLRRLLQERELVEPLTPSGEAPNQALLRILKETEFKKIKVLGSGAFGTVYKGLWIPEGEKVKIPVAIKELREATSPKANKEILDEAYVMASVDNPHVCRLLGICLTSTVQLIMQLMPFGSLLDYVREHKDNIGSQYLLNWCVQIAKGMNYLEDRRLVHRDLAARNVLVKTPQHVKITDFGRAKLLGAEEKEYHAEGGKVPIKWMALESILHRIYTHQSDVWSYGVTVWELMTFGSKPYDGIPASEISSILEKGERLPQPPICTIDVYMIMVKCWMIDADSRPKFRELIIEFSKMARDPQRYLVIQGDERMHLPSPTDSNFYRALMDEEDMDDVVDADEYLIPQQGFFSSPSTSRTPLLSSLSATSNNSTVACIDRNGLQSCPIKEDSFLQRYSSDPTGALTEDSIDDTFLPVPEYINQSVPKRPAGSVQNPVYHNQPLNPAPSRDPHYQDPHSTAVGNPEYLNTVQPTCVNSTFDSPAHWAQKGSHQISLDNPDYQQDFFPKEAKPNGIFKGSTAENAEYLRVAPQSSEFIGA
Chain of EGFR del19/C797S (P00533 with tags, fused parts or gaps DEL746-750/C797S): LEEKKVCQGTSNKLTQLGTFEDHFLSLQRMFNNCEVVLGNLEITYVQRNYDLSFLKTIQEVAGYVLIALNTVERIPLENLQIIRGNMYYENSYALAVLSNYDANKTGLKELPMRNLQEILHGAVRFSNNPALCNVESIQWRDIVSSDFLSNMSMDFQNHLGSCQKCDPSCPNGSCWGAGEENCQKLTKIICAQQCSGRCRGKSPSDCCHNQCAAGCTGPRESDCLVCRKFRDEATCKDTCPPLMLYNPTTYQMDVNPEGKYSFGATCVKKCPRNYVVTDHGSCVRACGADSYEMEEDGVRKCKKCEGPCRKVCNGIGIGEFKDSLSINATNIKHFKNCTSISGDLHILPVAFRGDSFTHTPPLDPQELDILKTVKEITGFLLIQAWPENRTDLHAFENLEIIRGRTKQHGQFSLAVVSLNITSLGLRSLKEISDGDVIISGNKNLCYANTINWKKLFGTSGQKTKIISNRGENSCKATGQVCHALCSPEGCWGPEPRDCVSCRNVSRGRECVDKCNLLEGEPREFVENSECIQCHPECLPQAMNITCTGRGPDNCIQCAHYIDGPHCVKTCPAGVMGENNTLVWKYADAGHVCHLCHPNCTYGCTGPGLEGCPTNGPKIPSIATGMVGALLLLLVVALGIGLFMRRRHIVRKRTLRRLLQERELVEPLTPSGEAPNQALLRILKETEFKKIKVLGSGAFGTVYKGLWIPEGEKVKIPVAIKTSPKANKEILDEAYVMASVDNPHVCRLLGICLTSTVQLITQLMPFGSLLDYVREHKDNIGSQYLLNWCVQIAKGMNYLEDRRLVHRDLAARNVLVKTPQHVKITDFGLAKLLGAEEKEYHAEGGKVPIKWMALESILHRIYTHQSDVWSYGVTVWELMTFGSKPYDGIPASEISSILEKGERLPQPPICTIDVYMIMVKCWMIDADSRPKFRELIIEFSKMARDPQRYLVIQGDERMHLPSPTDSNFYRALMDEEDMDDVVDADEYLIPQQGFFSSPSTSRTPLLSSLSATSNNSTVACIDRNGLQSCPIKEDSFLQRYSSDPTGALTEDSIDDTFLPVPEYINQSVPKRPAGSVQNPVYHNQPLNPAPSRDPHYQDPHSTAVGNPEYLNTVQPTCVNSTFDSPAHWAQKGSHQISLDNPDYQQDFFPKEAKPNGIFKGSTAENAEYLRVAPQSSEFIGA
Chain of EGFR wildtype (P00533 25-1210): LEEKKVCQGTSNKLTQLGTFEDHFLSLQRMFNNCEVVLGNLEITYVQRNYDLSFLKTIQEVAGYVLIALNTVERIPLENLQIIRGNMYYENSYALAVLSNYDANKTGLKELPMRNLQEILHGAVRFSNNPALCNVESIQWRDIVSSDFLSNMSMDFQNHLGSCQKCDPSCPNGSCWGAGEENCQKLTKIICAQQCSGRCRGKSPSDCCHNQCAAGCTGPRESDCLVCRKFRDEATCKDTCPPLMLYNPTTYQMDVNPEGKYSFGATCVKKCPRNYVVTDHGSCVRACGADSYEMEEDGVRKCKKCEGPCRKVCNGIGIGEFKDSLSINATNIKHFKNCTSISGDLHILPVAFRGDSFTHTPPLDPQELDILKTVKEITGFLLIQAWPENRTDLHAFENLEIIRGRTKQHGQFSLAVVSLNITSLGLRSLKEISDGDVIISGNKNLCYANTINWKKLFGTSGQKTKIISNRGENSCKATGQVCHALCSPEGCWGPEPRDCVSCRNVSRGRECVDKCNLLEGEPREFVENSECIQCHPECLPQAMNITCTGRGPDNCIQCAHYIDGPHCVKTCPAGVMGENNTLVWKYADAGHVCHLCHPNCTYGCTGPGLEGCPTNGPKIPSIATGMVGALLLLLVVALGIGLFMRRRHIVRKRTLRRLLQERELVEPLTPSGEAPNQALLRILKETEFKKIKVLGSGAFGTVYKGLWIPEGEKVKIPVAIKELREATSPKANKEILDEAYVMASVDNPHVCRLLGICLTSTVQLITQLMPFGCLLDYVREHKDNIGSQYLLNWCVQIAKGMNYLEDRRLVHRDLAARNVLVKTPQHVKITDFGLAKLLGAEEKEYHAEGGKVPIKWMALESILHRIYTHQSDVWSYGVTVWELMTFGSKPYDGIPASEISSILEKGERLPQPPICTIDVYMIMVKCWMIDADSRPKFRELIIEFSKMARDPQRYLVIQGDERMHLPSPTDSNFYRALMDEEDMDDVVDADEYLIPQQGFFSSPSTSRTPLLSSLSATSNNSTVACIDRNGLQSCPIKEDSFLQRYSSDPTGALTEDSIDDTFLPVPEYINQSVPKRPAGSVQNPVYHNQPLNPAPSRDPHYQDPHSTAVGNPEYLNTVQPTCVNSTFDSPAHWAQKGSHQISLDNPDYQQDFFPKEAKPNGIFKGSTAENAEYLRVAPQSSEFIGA

Consider `CN(C)Cc1ccc(-c2cnc(Nc3ccnc(-c4cnn(S(=O)(=O)C5CC5)c4)n3)cc2N[C@H]2CC[C@@](C)(O)CC2)nc1` [Example 31, (1s,4s)-4-((6′-((2-(1-(Cyclopropylsulfonyl)-1H-pyrazol-4-yl)pyrimidin-4-yl)amino)-5-((dimethylamino)methyl)-[2,3′-bipyridin]-4′-yl)amino)-1-methylcyclohexan-1-ol], for which the IC50 in assay [1] (IC50 del19/T790M/C797S (nM) 100 μM ATP, 100 μM ATP) was determined as 0.2 nM; in assay [1] (Km ATP, read-out: IC50 del19/T790M/C797S (nM) Km ATP) it was 0.2 nM; in assay [2] (IC50 del19/C797S (nM) 100 μM ATP, 100 μM ATP), 0.1 nM; in assay [2] (Km ATP, read-out: IC50 del19/C797S (nM) Km ATP), 0.1 nM; in assay [3] (IC50 L858R/T790M/C797S (nM) 100 μM ATP, 100 μM ATP) it was 0.1 nM; in assay [3] (Km ATP, read-out: IC50 L858R/T790M/C797S (nM) Km ATP), 0.1 nM. Also, the IC50 in assay [4] (IC50 L858R/C797S (nM) 100 μM ATP, 100 μM ATP) was determined as 0.8 nM; in assay [4] (Km ATP, read-out: IC50 L858R/C797S (nM) Km ATP), 0.1 nM; in assay [5] (IC50 WT (nM) 100 μM ATP, 100 μM ATP), 52.6 nM; in assay [5] (Km ATP, read-out: IC50 WT (nM) Km ATP), 0.3 nM.
As for `CC1(O)CCC(Nc2cc(Nc3ccnc(-c4cnn(S(=O)(=O)C5CC5)c4)n3)ncc2-c2cc(NC3CC(O)C3)ccn2)CC1` (centres unmarked) [Example 283, (1s,4s)-4-((6′-((2-(1-(Cyclopropylsulfonyl)-1H-pyrazol-4-yl)pyrimidin-4-yl)amino)-4-((3-hydroxycyclobutyl)amino)-[2,3′-bipyridin]-4′-yl)amino)-1-methylcyclohexan-1-ol], the pIC50 was 10.00 in assay [1] (setting [6]); 9.22 in assay [2] (IC50 del19/C797S, 100 μM ATP); 9.40 in assay [3] (setting [7]); 8.64 in assay [4] (IC50 L858R/C797S, 100 μM ATP); 5.71 in assay [5] (IC50 WT, 100 μM ATP).
Taken in the same sequence, the figures for `C[C@]1(O)CC[C@@H](Nc2cc(Nc3ccnc(-c4cnn(S(=O)(=O)C5CC5)c4)n3)ncc2-c2cc(NCCN3CC(F)C3)ccn2)CC1` [Example 281, (1s,4s)-4-((6′-((2-(1-(Cyclopropylsulfonyl)-1H-pyrazol-4-yl)pyrimidin-4-yl)amino)-4-((2-(3-fluoroazetidin-1-yl)ethyl)amino)-[2,3′-bipyridin]-4′-yl)amino)-1-methylcyclohexan-1-ol] were 9.70, 9.22, 9.70, 8.68 and 5.20.
For the molecule `C[C@]1(O)CC[C@@H](Nc2nccc(-c3cnc(Nc4ccnc(-c5cnn(S(=O)(=O)C6CC6)c5)n4)cc3N[C@H]3CC[C@@](C)(O)CC3)n2)CC1` [Example 191, (1s,4s)-4-((4-(6-((2-(1-(Cyclopropylsulfonyl)-1H-pyrazol-4-yl)pyrimidin-4-yl)amino)-4-(((1s,4s)-4-hydroxy-4-methylcyclohexyl)amino)pyridin-3-yl)pyrimidin-2-yl)amino)-1-methylcyclohexan-1-ol], the pIC50 in assay [1] (setting [8]) is 9.00; in assay [1] (setting [6]), 8.77; in assay [2] (setting [9]), 8.64; in assay [2] (IC50 del19/C797S, 100 μM ATP), 8.19; in assay [3] (setting [10]), 9.52; in assay [4] (setting [11]), 8.80. Further, the pIC50 in assay [4] (IC50 L858R/C797S, 100 μM ATP) is 7.58; in assay [5] (setting [12]), 7.56; in assay [5] (IC50 WT, 100 μM ATP), below 5.00.
In the case of `CN1CCC(Oc2ccc(-c3cnc(Nc4ccnc(-c5cnn(S(=O)(=O)C6CC6)c5)n4)cc3NC3CCN(CCF)CC3)nc2)CC1` [Example 256, N^6′-(2-(1-(Cyclopropylsulfonyl)-1H-pyrazol-4-yl)pyrimidin-4-yl)-N^4′-(1-(2-fluoroethyl)piperidin-4-yl)-5-((1-methylpiperidin-4-yl)oxy)-[2,3′-bipyridine]-4′,6′-diamine], the pIC50 is 10.00 in assay [1] (setting [8]); 8.42 in assay [2] (setting [9]); 10.00 in assay [3] (setting [10]); 9.22 in assay [4] (setting [11]); 7.21 in assay [5] (setting [12]).
`CC(O)(c1ccc(-c2cnc(Nc3ccnc(-c4cnn(S(=O)(=O)C5CC5)c4)n3)cc2NC2CCC(F)CC2)nc1)C(F)(F)F` (centres unmarked) [Example 266, 2-(6′-((2-(1-(Cyclopropylsulfonyl)-1H-pyrazol-4-yl)pyrimidin-4-yl)amino)-4′-((4-fluorocyclohexyl)amino)-[2,3′-bipyridin]-5-yl)-1,1,1-trifluoropropan-2-ol]: the pIC50 was 7.48 in assay [1] (setting [8]); 7.90 in assay [2] (setting [9]); 7.73 in assay [3] (setting [10]); 7.40 in assay [4] (setting [11]); 6.77 in assay [5] (setting [12]).
Consider `CC1(O)CCC(Nc2cc(Nc3ccnc(-c4cnn(S(=O)(=O)C5CC5)c4)n3)ncc2-c2ccc(C(C)(O)C(F)(F)F)cn2)CC1` (centres unmarked) [Example 230, (1s,4s)-4-((6′-((2-(1-(Cyclopropylsulfonyl)-1H-pyrazol-4-yl)pyrimidin-4-yl)amino)-5-(1,1,1-trifluoro-2-hydroxypropan-2-yl)-[2,3′-bipyridin]-4′-yl)amino)-1-methylcyclohexan-1-ol], for which the pIC50 in assay [1] (setting [8]) was 8.96; in assay [2] (setting [9]) it was 8.77; in assay [2] (IC50 del19/C797S, 100 μM ATP), 8.22; in assay [3] (setting [10]) it was 9.40; in assay [3] (setting [7]), 9.22; in assay [4] (setting [11]), 8.62. The pIC50 in assay [4] (IC50 L858R/C797S, 100 μM ATP) was 8.11; in assay [5] (setting [12]) it was 8.30; in assay [5] (IC50 WT, 100 μM ATP), 5.78.
For `CC(C)(O)[C@H]1CC[C@@H](Nc2cc(Nc3ccnc(-c4cnn(S(=O)(=O)C5CC5)c4)n3)ncc2-c2cccc(CC(F)(F)F)n2)CC1` [Example 247, 2-((1s,4s)-4-((6′-((2-(1-(Cyclopropylsulfonyl)-1H-pyrazol-4-yl)pyrimidin-4-yl)amino)-6-(2,2,2-trifluoroethyl)-[2,3′-bipyridin]-4′-yl)amino)cyclohexyl)propan-2-ol], the pIC50 in assay [1] (setting [6]) was 7.83; in assay [2] (IC50 del19/C797S, 100 μM ATP), 7.09; in assay [3] (setting [7]) it was 8.59; in assay [4] (IC50 L858R/C797S, 100 μM ATP), 7.29; in assay [5] (setting [12]), 6.96; in assay [5] (IC50 WT, 100 μM ATP), below 5.00.
As for `O=S(=O)(C1CC1)n1cc(-c2nccc(Nc3cc(N[C@H]4CC[C@@H](CO)CC4)c(-c4ccc(C(F)(F)CO)cn4)cn3)n2)cn1` [Example 244, 2-(6′-((2-(1-(Cyclopropylsulfonyl)-1H-pyrazol-4-yl)pyrimidin-4-yl)amino)-4′-(((1s,4s)-4-(hydroxymethyl)cyclohexyl)amino)-[2,3′-bipyridin]-5-yl)-2,2-difluoroethan-1-ol], the pIC50 was 9.05 in assay [1] (setting [8]); 8.77 in assay [1] (setting [6]); 9.22 in assay [2] (setting [9]); 9.05 in assay [2] (IC50 del19/C797S, 100 μM ATP); 9.70 in assay [3] (setting [10]); 9.52 in assay [3] (setting [7]). In addition, the pIC50 is 9.40 in assay [4] (setting [11]); 9.05 in assay [4] (IC50 L858R/C797S, 100 μM ATP); 8.74 in assay [5] (setting [12]); 5.85 in assay [5] (IC50 WT, 100 μM ATP).
For `C[C@]1(O)CC[C@@H](Nc2cc(Nc3ccnc(-c4cnn(S(=O)(=O)C5CC5)c4)n3)ncc2-c2ccc(OCCN3CCC3)cn2)CC1` [Example 290, (1s,4s)-4-((5-(2-(Azetidin-1-yl)ethoxy)-6′-((2-(1-(cyclopropylsulfonyl)-1H-pyrazol-4-yl)pyrimidin-4-yl)amino)-[2,3′-bipyridin]-4′-yl)amino)-1-methylcyclohexan-1-ol], the pIC50 in assay [1] (setting [8]) is 9.40; in assay [1] (setting [6]) it was 9.40; in assay [2] (setting [9]), 9.70; in assay [2] (IC50 del19/C797S, 100 μM ATP), 9.52; in assay [3] (setting [10]) it was 10.00; in assay [3] (setting [7]), 9.70. The pIC50 was 10.00 in assay [4] (setting [11]); 9.22 in assay [4] (IC50 L858R/C797S, 100 μM ATP); 9.30 in assay [5] (setting [12]); 6.93 in assay [5] (IC50 WT, 100 μM ATP).

Values taken from patent publication US12258328B2, “6-membered heteroaryl-containing aminopyridine compounds as EGFR inhibitors” (YUHAN CORPORATION, priority 2021, dated 2025).
